Literature values, collected in PubChem BioAssay AID1259409 (Chemical Carcinogenesis Research Information System (CCRIS), 2018).

Tested on: rodent chemically induced tumor inhibition, incidence and multiplicity
Assay: CCRIS tumor inhibitor studies
Source text: The CCRIS database contains chemical records with carcinogenicity, mutagenicity, tumor promotion, and tumor inhibition test results. It was developed by the National Cancer Institute (NCI). Data are derived from studies cited in primary journals, current awareness tools, NCI reports, and other sources. Test results have been reviewed by experts in carcinogenesis and mutagenesis.
CCRIS provides historical information from the years 1985 - 2011. It is no longer updated.
This is an archive assay for CCRIS tumor inhibitor studies.

## O=P(O)(O)O
Carcinogen: N-ETHYL-N-HYDROXYETHYLNITROSAMINE, 13147-25-6, Dose [Inhibitor]: 0, 10% IN DIET OF UNILATERALLY NEPHRECTOMIZED RATS BEGINNING POST CARCINOGEN TREATMENT AND CONTINUING FOR 18 WK (STUDY D, Route [Inhibitor]: ORAL, Species: RAT, Strain/Sex: WISTAR/MALE, Target Tissue: Type of Lesion: KIDNEY: RENAL CELL TUMOR, Dose [Carcinogen]: 1000 PPM IN DIET FOR 2 WK, Promoter: NONE USED
  tumour outcome (control, treated, inhibition, significance): 5/20 (25%), 3/18 (17%), 32%, not calculated

## Cc1ccc(O)c(O)c1
Carcinogen: N-NITROSOBIS(2-HYDROXYPROPYL)AMINE, 53609-64-6, Dose [Inhibitor]: 0, 1.5% IN DIET FOR 30 WK BEGINNING POST CARCINOGEN TREATMENT (STUDY DURATION: 35 WK), Route [Inhibitor]: ORAL, Species: HAMSTER, Strain/Sex: SYRIAN/MALE, Target Tissue: Type of Lesion: PANCREAS: ADENOCARCINOMA, Dose [Carcinogen]: 500 MG/KG 1/WK FOR 5 WK, Promoter: NONE USED
  tumour outcome (control, treated, inhibition, significance): 8/17 (47%), 9/19 (47%), 0%, not significant

## CC(C)(C)c1cccc(C(C)(C)C)c1O
Carcinogen: BENZO[A]PYRENE, 50-32-8, Dose [Inhibitor]: 0.03 MMOL/G OF DIET DAILY STARTING 7 D BEFORE AND CONTINUING THROUGH 3 D AFTER CARCINOGEN TREATMENT FOLLOWED BY OBSERVAT, Route [Inhibitor]: ORAL, Species: MOUSE, Strain/Sex: ICR/FEMALE, Target Tissue: Type of Lesion: FORESTOMACH: NEOPLASM, Dose [Carcinogen]: 1 MG IN 0.2 ML CORN OIL 2/WK FOR 4 WK, Promoter: NONE USED
  tumour outcome (control, treated, inhibition, significance): 94%, 79%, 16%, not significant

## CCC1(c2ccc(N)cc2)CCC(=O)NC1=O (stereo not given)
Carcinogen: N-METHYL-N-NITROSOUREA, 684-93-5, Dose [Inhibitor]: 0, 400 MG/KG IN DIET FOR THE DURATION OF STUDY BEGINNING 7 D PRIOR TO CARCINOGEN DOSE (STUDY DURATION: 187 D), Route [Inhibitor]: ORAL, Species: RAT, Strain/Sex: SPRAGUE-DAWLEY/FEMALE, Target Tissue: Type of Lesion: MAMMARY GLAND: TUMOR, Dose [Carcinogen]: 50 MG/KG BW ONCE, Promoter: NONE USED
  tumour outcome (control, treated, inhibition, significance): 100%, 100%, 0%, not significant

## CC(C)c1cc(C(=O)O)c(O)c(C(C)C)c1
Carcinogen: BENZO[A]PYRENE, 50-32-8, Dose [Inhibitor]: 2000 NMOL IN 0.2 ML ACETONE APPLIED ONCE TO DORSAL SKIN 15 MIN PRIOR TO CARCINOGEN DOSE (STUDY DURATION: 20 WK), Route [Inhibitor]: DERMAL, Species: MOUSE, Strain/Sex: SENCAR/FEMALE, Target Tissue: Type of Lesion: SKIN: PAPILLOMA, Dose [Carcinogen]: 200 NMOL IN 0.2 ML ACETONE ONCE
  tumour outcome (control, treated, inhibition, significance): 97%, 96%, 0.3%, not significant

## CC(C)(C)NC(=O)[C@H]1CC[C@H]2[C@@H]3CC[C@H]4NC(=O)C=C[C@]4(C)[C@H]3CC[C@]12C
Carcinogen: N-BUTYL-N-(4-HYDROXYBUTYL)NITROSAMINE, 3817-11-6, Dose [Inhibitor]: 0, 2 MG/KG 2/WK FOR 11 WK BEGINNING POST CARCINOGEN TREATMENT (STUDY DURATION: 21WK), Route [Inhibitor]: ORAL, Species: RAT, Strain/Sex: WISTAR/MALE, Target Tissue: Type of Lesion: URINARY BLADDER: CARCINOMA, Dose [Carcinogen]: 0.05% IN DRINKING WATER FOR 10 WK, Promoter: NONE USED
  tumour outcome (control, treated, inhibition, significance): 15/17 (88%), 12/17 (71%), 19%, not significant
Carcinogen: N-BUTYL-N-(4-HYDROXYBUTYL)NITROSAMINE, 3817-11-6, Dose [Inhibitor]: 0, 2 MG/KG 2/WK FOR 13 WK BEGINNING POST CARCINOGEN TREATMENT (STUDY DURATION: 20WK), Route [Inhibitor]: ORAL, Species: RAT, Strain/Sex: WISTAR/MALE, Target Tissue: Type of Lesion: URINARY BLADDER: CARCINOMA, Dose [Carcinogen]: 0.05% IN DRINKING WATER FOR 7 WK, Promoter: NONE USED
  tumour outcome (control, treated, inhibition, significance): 25/39 (64%), 9/20 (45%), 30%, not significant
Carcinogen: N-BUTYL-N-(4-HYDROXYBUTYL)NITROSAMINE, 3817-11-6, Dose [Inhibitor]: 0, 4 MG/KG 2/WK FOR 13 WK BEGINNING POST CARCINOGEN TREATMENT (STUDY DURATION: 20 WK), Route [Inhibitor]: ORAL, Species: RAT, Strain/Sex: WISTAR/MALE, Target Tissue: Type of Lesion: URINARY BLADDER: CARCINOMA, Dose [Carcinogen]: 0.05% IN DRINKING WATER FOR 7 WK, Promoter: NONE USED
  tumour outcome (control, treated, inhibition, significance): 25/39 (64%), 9/20 (45%), 30%, not significant
Carcinogen: N-BUTYL-N-(4-HYDROXYBUTYL)NITROSAMINE, 3817-11-6, Dose [Inhibitor]: 0, 8 MG/KG 2/WK FOR 13 WK BEGINNING POST CARCINOGEN TREATMENT (STUDY DURATION: 20 WK), Route [Inhibitor]: ORAL, Species: RAT, Strain/Sex: WISTAR/MALE, Target Tissue: Type of Lesion: URINARY BLADDER : CARCINOMA, Dose [Carcinogen]: 0.05% IN DRINKING WATER FOR 7 WK, Promoter: NONE USED
  tumour outcome (control, treated, inhibition, significance): 25/39 (64%), 8/20 (40%), 38%, not significant
Carcinogen: N-METHYL-N-NITROSOUREA, 684-93-5, Dose [Inhibitor]: 0.09 MG/200 G BW/D FOR 2 MO BEGINNING 9.5 MO POST-CARCINOGEN DOSE (STUDY DURATION: 11.5 MO), Route [Inhibitor]: GAVAGE, Species: RAT, Strain/Sex: WISTAR/MALE, Target Tissue: Type of Lesion: PROSTATE: ADENOCARCINOMA, Dose [Carcinogen]: 35 MG/KG BW ONCE AT INITIATION OF STUDY, Promoter: TESTOSTERONE PROPIONATE, 57-85-2
  tumour outcome (control, treated, inhibition, significance): 9/14 (64%), 1/10 (10%), 84%, not determined
